Results: patent US20150224169A1, “COMPOUNDS AND METHODS FOR SELECTIVELY TARGETING CANCER STEM CELLS” (McMaster University, priority 2012, published 2015)
Read-outs that look alike come from different tables or passages of the source.

Legend:
[1] = system: variant neoplastic stem cells (v1O4) relative to normal stem cells (H9); test: Selective-activity dose-response screening assay (cell counts, v1O4 versus H9); assay type: cell-based, human; settings: dose-response curves FIG. 3B
Protocol: Briefly, variant neoplastic stem cells (v1O4) cells were seeded into Matrigel-coated 96 well plates (5000 cells/well) containing mouse embryonic fibroblast conditioned media (MEFCM) supplemented with 8 ng/mL bFGF, and treated for 72 hours with compounds dissolved in DMSO. The final concentration of each compound used in treatment was either 10 μM or 1 μM (n=3). Control wells were treated with 0.1% DMSO (low control) or 100 ng/ml BMP4 (high control to induce LOP). At the end of 72 hours, cells were fixed, stained with Hoechst and imaged by automated microscopy. GFP intensity and Hoechst signal were quantified as measures of LOP and cell count, respectively, and compounds with a Z-score of more than 3 standard deviations from the mean for reduced cell count and LOP were chosen as hits.
In the second stage also shown in FIG. 1, 8- or 10-point dilutions for each compound were tested on variant neoplastic stem cells (v1O4) and normal stem cells (H9 cells) cells to generate dose-response curves. […] Dose response data were fit with a 4-parameter Hill equation to derive EC50, slopes, min and max values using IDBS ActivityBase software. The EC50 values were then used to calculate a selective-activity potency ratio (H9 EC50/v1O4 EC50).

[2] = system: AML patient cells; assay type: cell-based, human; settings: for Ability of AML cells to form CFUs / Selectivity ratio of total CFUs from cord blood cells versus blast CFUs from AML samples: 0.1 μM; for Ability of AML cells to form CFUs / CFU forming potential of AML cells: treated one day, 14 days in methylcellulose; for Selectivity ratio of total CFUs from cord blood cells versus blast CFUs from AML samples: normalized to 0.1% DMSO control, ratio greater than 1 = selective for AML
Excerpt: (§1) Methylcellulose assays provide a functional and quantitative measure of hematopoietic progenitor/stem cell proliferation/clonogenic potential based on the formation of colony-forming units (CFUs) in vitro. Hematopoietic progenitor/stem cells from lineage-depleted human umbilical cord blood are capable of proliferation and differentiation to all blood lineages. AML blast cells from leukemia patients are myeloid progenitor cells blocked in differentiation that are sustained by a self-renewing leukemic stem cell(s). In this experiment, lineage-depleted cord blood cells and AML samples were each treated with Nystatin for one day and then cultured in methylcellulose for 14 days after which the numbers of CFUs were determined.
(§2) Cord blood and AML patient cells were seeded in 96-well plates at 500 cells and 25000 cells respectively in 50 μL medium containing StemSpan™ (Stemcell Technologies), 200 ng/mL stem cell factor (SCF, R&D Systems), 200 ng/mL Flt-3 (R&D Systems) and 40 ng/mL thrombopoietin (TPO, Stemcell Technologies). Then, 50 μL StemSpan containing 0.2 μM, 2 μM or 20 μM compounds was added to each well containing the cells. The cells were incubated for 24 hours at 37° C., after which the compound medium was removed from the wells and replaced with 50 μL medium containing StemSpan, 100 ng/mL SCF, 100 ng/mL Flt-3 and 20 ng/mL TPO. The cells from each well were mixed with 500 μL Methocult™ (Stemcell Technologies, H4434), and seeded into 12-well plates. The samples were imaged and scored after 14 days of incubation at 37° C.

[3] = system: lineage-depleted human umbilical cord blood cells; test: Methylcellulose assay, CFU formation; assay type: cell-based; settings: for Normal hematopoietic progenitor/stem cell proliferation activity (CFU-forming potential of cord blood cells): 0.1 μM, treated one day, 14 days in methylcellulose
Excerpt: as §1, §2

[4] = system: variant neoplastic stem cells; settings: Sachlos et al., 2012; cited from earlier work
[5] = higher concentrations (above 0.1 μM)

SMILES | Selectivity for cancer stem cells based on a single 10 μM concentration point [1] | Ability of AML cells to form CFUs [2] | Selectivity ratio of total CFUs from cord blood cells versus blast CFUs from AML samples [2] | Normal hematopoietic progenitor/stem cell proliferation activity (CFU-forming potential of cord blood cells) [3] | also measured
CS(=O)(=O)O.Cn1cc(C2=C(c3cn(CCCSC(=N)N)c4ccccc34)C(=O)NC2=O)c2ccccc21 [Ro 31-8220 mesylate] | would have not have been considered selective | – | – | – | –
C[C@@H]1[C@H](O)[C@@H](C)/C=C/C=C/CC/C=C/C=C/C=C/C=C/C(O[C@H]2O[C@H](C)[C@@H](O)[C@H](N)[C@@H]2O)CC2O[C@](O)(CC(O)C(O)CCC(O)CC(O)CC(O)CC(=O)O[C@H]1C)CC(O)C2C(=O)O (some centres unmarked) [Nystatin] | – | reduced the ability of AML cells to form CFUs | 1.5 | little effect | CFU forming potential of AML cells ([2]; 1 μM): no effect; CFU forming potential of AML cells ([2]; 10 μM): no effect
CCCCc1ccc2[nH]c(NC(=O)OC)nc2c1 [Parbendazole] | would have not have been considered selective | – | – | – | –
Nc1nc(O)c2[nH]nnc2n1 [Azaguanine-8] | would have not have been considered selective | – | – | – | –
CSc1ccc2c(c1)N(CCC1CCCCN1C)c1ccccc1S2 (centres unmarked) [Thioridazine] | – | – | – | – | Action on variant neoplastic stem cells [4]: inducing differentiation through a loss of pluripotency
Nc1ccn([C@@H]2O[C@H](CO)[C@@H](O)[C@@H]2O)c(=O)n1 [AraC, cytarabine] | – | reduced the ability of AML samples to form CFUs | no statistically significant difference | also affected the CFU-forming potential of cord blood cells | Toxicity to AML cells in methylcellulose assay [2, 5]: toxic; Toxicity to cord blood cells in methylcellulose assay [3, 5]: toxic
